Article PMC3587566, “The Ultra-Potent and Selective TLR8 Agonist VTX-294 Activates Human Newborn and Adult Leukocytes” (PLoS ONE, 2013)
Like-named read-outs stand apart in the source and are kept apart here. Values belong to the compound of their own block, whether it stands above or below them.

Experiments:
Assay type in all cases: cell-based
[1] = tested on: human adult peripheral blood; experiment: Adult whole blood assay, TNF / IL-1β ELISA; settings: mean, n = 4-9; for EC50: Homo sapiens
[2] = tested on: human neonatal MoDCs; experiment: Neonatal monocyte-derived dendritic cell (MoDC) stimulation, TNF ELISA; settings: 24 h
Description: Heparinized human newborn cord blood or adult peripheral blood was layered onto Ficoll-Hypaque gradients (Ficoll-Paque PREMIUM, GE Healthcare, Waukesha, WI) to collect CBMC or peripheral blood mononuclear cell layers (PBMC), respectively. Monocytes were isolated from mononuclear cell fractions by positive selection by magnetic microbeads according to the manufacturer’s instructions (Miltenyi Biotec, Auburn, CA) using CD14 or CD33 as a pan-marker for monocytes. Monocyte preparations were >95% pure as assessed by flow cytometry for CD14 as previously described. […] After 5–6 days, immature MoDCs (HLA-DR^+, CD14^−, DC-SIGN^+ as measured by flow cytometry) of >90% purity were harvested by gently pipetting only the loosely adherent fraction and re-plated (10^5 cells/well) in 96-well U-bottom plates in the presence or absence of TLR agonists.
Following TLR agonist stimulation, MoDCs were resuspended in staining buffer (1×PBS, 0.5% human serum albumin (HSA)) and stained for 30 min at 4°C in the dark (1.5×10^5/per staining) with fluorophore-labeled antibodies (FITC/HLA-DR and PE/CD86) (BD Biosciences). Cells were then centrifuged, washed, fixed (1% paraformaldehyde (PFA)) and filtered prior to flow cytometry analysis using a MoFlo Legacy cytometer (DakoCytomation, Fort Collins, CO) and analyzed using FlowJo software (Tree Star). […]

[3] = tested on: human newborn cord blood; experiment: Newborn whole blood assay, TNF / IL-1β ELISA; settings: for Newborn WBA IL-1β / Newborn WBA TNF: baseline subtracted
Description: (§1) Peripheral blood was collected from healthy adult volunteers, while human newborn cord blood was collected immediately after Cesarean section delivery of the placenta. Births to HIV-positive mothers were excluded. Human experimentation guidelines of the U.S. Department of Health and Human Services, The Brigham & Women’s Hospital, and Boston Children’s Hospital were observed, following protocols approved by the local institutional review boards. Human blood was anti-coagulated with 15–20 units/ml pyrogen-free sodium heparin (American Pharmaceutical Partners, Inc., Schaumberg, IL). All blood products were kept at room temperature and processed within 4 hrs of collection.
(§2) For assessment of TLR agonist activity in whole blood, we used an adaptation of the method of Kollmann et al., [33]. […] Suspensions containing 200 µl/well were gently mixed by pipetting and incubated for 2–24 h at 37°C in a humidified incubator at 5% CO2. After culture, plates were centrifuged at 500×g and 110–150 µl of supernatant was carefully removed by pipetting without disturbing the cell pellet. Supernatants derived from human leukocyte stimulations were assayed by ELISA for TNF (BD Biosciences, San Jose, CA, USA) and IL-1β (eBiosciences, San Diego, CA). Additionally, WB supernatants were analysed by Multi-Analyte Profiling (MAP). Briefly, supernatant samples were frozen at −80°C and submitted to Myriad RBM (Austin, TX, USA) for screening with a modified Human InflammationMAP® v. 1.6 antigen panel, which analyzed the samples for the presence of 98 analytes associated with inflammation. The minimum threshold for each analyte was set at the minimum detectable dose for that particular assay (defined as three standard deviations above the mean background).
(§3) Compound concentrations are shown in µM, except for MPLA, which are shown in ng/ml. Data are shown as mean ± SEM of n = 5–8.

[4] = tested on: human adult peripheral blood; experiment: Adult whole blood assay, TNF / IL-1β ELISA; settings: baseline subtracted
Description: as §1, §2, §3

[5] = tested on: human newborn cord blood; experiment: Newborn whole blood assay, TNF / IL-1β ELISA; settings: mean, n = 4-9

EC50 ([1]; read-out: Adult WBA IL-1β EC50): 1620 nM
EC50 ([1]; read-out: Adult WBA TNF EC50): 1040 nM
EC50 ([3]; Homo sapiens, mean, n = 4-9, read-out: Newborn WBA IL-1β EC50): 6650 nM
EC50 ([5]; Homo sapiens, read-out: Newborn WBA TNF EC50): 1500 nM
Compound: CCOCc1nc2c(N)nc3ccccc3c2n1CC(C)(C)O [R848]
lowest concentration inducing MoDC TNF production ([2]; tested 0.1, 0.3, 10 µM): 10 µM
Newborn WBA IL-1β ([3]; agonist 0.1 μM): 0 pg/mL
Newborn WBA TNF ([3]; agonist 0.1 μM): 0 pg/mL
Newborn WBA IL-1β ([3]; agonist 0.3 μM): 9 pg/mL
Newborn WBA TNF ([3]; agonist 0.3 μM): 0 pg/mL
Newborn WBA IL-1β ([3]; agonist 1 μM): 285 pg/mL
Newborn WBA TNF ([3]; agonist 1 μM): 2164 pg/mL
Newborn WBA IL-1β ([3]; agonist 10 μM): 7442 pg/mL
Newborn WBA TNF ([3]; agonist 10 μM): 33609 pg/mL
Newborn WBA IL-1β ([3]; agonist 100 μM): 10822 pg/mL
Newborn WBA TNF ([3]; agonist 100 μM): 20117 pg/mL
Adult WBA IL-1β ([4]; agonist 0.1 μM): 2 pg/mL
Adult WBA TNF ([4]; agonist 0.1 μM): 132 pg/mL
Adult WBA IL-1β ([4]; agonist 0.3 μM): 27 pg/mL
Adult WBA TNF ([4]; agonist 0.3 μM): 750 pg/mL
Adult WBA IL-1β ([4]; agonist 1 μM): 779 pg/mL
Adult WBA TNF ([4]; agonist 1 μM): 6661 pg/mL
Adult WBA IL-1β ([4]; agonist 10 μM): 4762 pg/mL
Adult WBA TNF ([4]; agonist 10 μM): 13913 pg/mL
Adult WBA IL-1β ([4]; agonist 100 μM): 4694 pg/mL
Adult WBA TNF ([4]; agonist 100 μM): 9982 pg/mL

Adult WBA IL-1β EC50 [1]: 0.00159 µg/mL
Adult WBA TNF EC50 [1]: 0.01259 µg/mL
Newborn WBA IL-1β EC50 [5]: 0.01148 µg/mL
Newborn WBA TNF EC50 [5]: 0.01457 µg/mL
Compound: monophosphoryl lipid A [MPLA]
lowest concentration inducing MoDC TNF production (p<0.05 vs unstimulated) ([2]; tested 1, 10, 100 ng/ml): 10 ng/mL
Newborn WBA IL-1β ([3]; agonist 0.1 ng/ml): 0 pg/mL
Newborn WBA TNF ([3]; agonist 0.1 ng/ml): 0 pg/mL
Newborn WBA IL-1β ([3]; agonist 0.3 ng/ml): 0 pg/mL
Newborn WBA TNF ([3]; agonist 0.3 ng/ml): 11 pg/mL
Newborn WBA IL-1β ([3]; agonist 1 ng/ml): 24 pg/mL
Newborn WBA TNF ([3]; agonist 1 ng/ml): 29 pg/mL
Newborn WBA IL-1β ([3]; agonist 10 ng/ml): 682 pg/mL
Newborn WBA TNF ([3]; agonist 10 ng/ml): 642 pg/mL
Newborn WBA IL-1β ([3]; agonist 100 ng/ml): 1628 pg/mL
Newborn WBA TNF ([3]; agonist 100 ng/ml): 3665 pg/mL
Adult WBA IL-1β ([4]; agonist 0.1 ng/ml): 5 pg/mL
Adult WBA TNF ([4]; agonist 0.1 ng/ml): 128 pg/mL
Adult WBA IL-1β ([4]; agonist 0.3 ng/ml): 27 pg/mL
Adult WBA TNF ([4]; agonist 0.3 ng/ml): 33 pg/mL
Adult WBA IL-1β ([4]; agonist 1 ng/ml): 95 pg/mL
Adult WBA TNF ([4]; agonist 1 ng/ml): 215 pg/mL
Adult WBA IL-1β ([4]; agonist 10 ng/ml): 763 pg/mL
Adult WBA TNF ([4]; agonist 10 ng/ml): 3353 pg/mL
Adult WBA IL-1β ([4]; agonist 100 ng/ml): 3153 pg/mL
Adult WBA TNF ([4]; agonist 100 ng/ml): 9158 pg/mL
